Here are results for 3 compounds from patent US6933312B2, “Pyrazole derivatives” (Agouron Pharmaceuticals, Inc., priority 2002, dated 2005).

One may read the melting point as the temperature of the solid-liquid transition. For orientation: IC50 means the concentration that gives 50% inhibition.

The target of series [1] is T1, purified recombinant HIV-1 reverse transcriptase (Human immunodeficiency virus type 1 group M subtype B, UniProt P04585).
T1 construct: purified recombinant HIV-1 reverse transcriptase (RT, EC, 2.7.7.49); made in house; host or cells: Escherichia coli
Nature of the series: Inhibition of HIV-1 Reverse Transcriptase Enzyme. The format is biochemical. As to conditions: Poly(rA)-oligo(dT) [3H]-SPA or [3H]-flashplate enzyme assay; 5% final DMSO. An excerpt:
The activity of the compounds of the invention as reverse transcriptase inhibitors may be measured using the following assay.
Inhibition of HIV-1 Reverse Transcriptase Enzyme
Using purified recombinant HIV-1 reverse transcriptase (RT, EC, 2.7.7.49) obtained by expression in Escherichia Coli, a 96-well plate assay system is established for assaying a large number of samples using either the Poly(rA)-oligo(dT) Reverse Transcriptase [3H]-SPA enzyme assay system (Amersham NK9020) or the [3H]-flashplate enzyme assay system (NEN—SMP 103) and following the manufacturer's recommendations. The compounds are dissolved in 100% DMSO and diluted with the appropriate buffer to a 5% final DMSO concentration. The inhibitory activity is expressed in percent inhibition relative to DMSO control.

In turn, `Cc1n[nH]c(CN2Cc3ncccc3C2=O)c1Oc1cc(Cl)cc(C#N)c1` registered a melting point of 225 to 227 °C.

In the case of `Cc1n[nH]c(CN2Cc3ccccc3C2=O)c1Oc1cc(Cl)cc(C#N)c1` [Example 1, 3-Chloro-5-[3-methyl-5-(1-oxo-1,3-dihydro-isoindol-2ylmethyl)-1H-pyrazol-4-yloxy]-benzonitrile], the IC50 in series [1] was determined as 76 nM.

Regarding `Cc1n[nH]c(CN2Cc3ccccc3C2=O)c1Oc1cc(C#N)cc(C#N)c1` [Example 4, 5-[3-Methyl-5-(1-oxo-1,3-dihydro-isoindol-2-ylmethyl)-1H-pyrazol-4-yloxy]-isophthalonitrile], the melting point fell in the range of 247 to 248 °C. Also, in series [1], the IC50 came out at 505 nM.
